# Test results: patent publication US7754692B2, “Arginyl-glutamine dipeptide for treatment of pathological vascular proliferation” (University of Florida Research Foundation, Inc., priority 2003, dated 2010)
# Peptide text beside a SMILES is read from it.
# What was measured:
# [1] = test system: retinal cell culture; assay: Retinal cell culture model, transepithelial resistance (TER); assay type: cell-based
# [2] = test system: vascular endothelial growth factor (VEGF); assay: Retinal cell culture model, vascular endothelial growth factor (VEGF); assay type: cell-based
# [3] = test system: pre-retinal neovascularization; assay: Neonatal mouse hyperoxia model of retinopathy of prematurity, counting pre-retinal neovascularization on stained sections; assay type: in vivo, mice
# Protocol: Neonatal mice were exposed to a period of hyperoxia to induce retinal angiogenesis that mimics retinopathy of prematurity. An Arginyl-glutamine dipeptide was administered intraperitoneally twice daily during the period when neovascularization occurs in this model, days 12 through 17.
# On day 17 the animals are sacrificed and degree of angiogenesis was quantified by counting pre-retinal neovascularization on stained sections from treated and untreated animals.
compound,measurement,setting,value
"N=C(N)NCCC[C@H](N)C(=O)N[C@@H](CCC(N)=O)C(=O)O [argininyl-glutamine, arginyl-glutamine] (H-Arg-Gln-OH)",transepithelial resistance (TER),[1],increased
same,vascular endothelial growth factor (VEGF),[2],decreased
same,reduction in preretinal neovascularization,"[3]; neonatal mice after hyperoxia, intraperitoneally twice daily days 12 through 17, read on day 17, combined data from two experiments (FIG. 1)",80%
same,nuclei (associated with retinopathy) compared to the vehicle,"[3]; repeat experiment with different doses of the dipeptide after oxygen stress challenge, FIG. 2",clear decrease
